US12404262B2 (priority 2021, dated 2025)

Conditions: 1.0% DMSO, 24-hour incubation at ambient temperature, maximum theoretical 100 μM; for pH 2 solubility: 0.1N HCl, first value of the cell; for pH 7 solubility: 1×PBS buffer (pH 7.4), second value of the cell

Row | pH 2 solubility | pH 7 solubility | SMILES
1 | 33 μM | 42 μM | CC(C)(C#Cc1ccc(-c2ccc(Cl)c3c(N(C(=O)OCCCS(=O)(=O)O)S(C)(=O)=O)nn(CC(F)(F)F)c23)c([C@H](Cc2cc(F)cc(F)c2)NC(=O)Cn2nc(C(F)(F)F)c3c2C(F)(F)[C@@H]2C[C@H]32)n1)S(C)(=O)=O [Compound 111, 3-(((4-chloro-7-(2-((S)-1-(2-((3bS,4aR)-5,5-difluoro-3-(trifluoromethyl)-3b,4,4a,5-tetrahydro-1H-cyclopropa[3,4]cyclopenta[1,2-c]pyrazol-1-yl)acetamido)-2-(3,5-difluorophenyl)ethyl)-6-(3-methyl-3-(methylsulfonyl)but-1-yn-1-yl)pyridin-3-yl)-1-(2,2,2-trifluoroethyl)-1H-indazol-3-yl)(methylsulfonyl)carbamoyl)oxy)propane-1-sulfonic acid]
2 | 24 μM | 1 μM | CC(C)(C#Cc1ccc(-c2ccc(Cl)c3c(N(C(=O)OCCN4CCOCC4)S(C)(=O)=O)nn(CC(F)(F)F)c23)c([C@H](Cc2cc(F)cc(F)c2)NC(=O)Cn2nc(C(F)(F)F)c3c2C(F)(F)[C@@H]2C[C@H]32)n1)S(C)(=O)=O [Compound 114, 2-morpholinoethyl (4-chloro-7-(2-((S)-1-(2-((3bS,4aR)-5,5-difluoro-3-(trifluoromethyl)-3b,4,4a,5-tetrahydro-1H-cyclopropa[3,4]cyclopenta[1,2-c]pyrazol-1-yl)acetamido)-2-(3,5-difluorophenyl)ethyl)-6-(3-methyl-3-(methylsulfonyl)but-1-yn-1-yl)pyridin-3-yl)-1-(2,2,2-trifluoroethyl)-1H-indazol-3-yl)(methylsulfonyl)carbamate]
3 | 1/1 μM | 1/1 μM | C[C@H](OC(=O)N(c1nn(CC(F)(F)F)c2c(-c3ccc(C#CC(C)(C)S(C)(=O)=O)nc3[C@H](Cc3cc(F)cc(F)c3)NC(=O)Cn3nc(C(F)(F)F)c4c3C(F)(F)[C@@H]3C[C@H]43)ccc(Cl)c12)S(C)(=O)=O)C(=O)O [Compound 115, (S)-2-(((4-chloro-7-(2-((S)-1-(2-((3bS,4aR)-5,5-difluoro-3-(trifluoromethyl)-3b,4,4a,5-tetrahydro-1H-cyclopropa[3,4]cyclopenta[1,2-c]pyrazol-1-yl)acetamido)-2-(3,5-difluorophenyl)ethyl)-6-(3-methyl-3-(methylsulfonyl)but-1-yn-1-yl)pyridin-3-yl)-1-(2,2,2-trifluoroethyl)-1H-indazol-3-yl)(methylsulfonyl)carbamoyl)oxy)propanoic acid]

Continued, compound first:

Row | SMILES | pH 2 solubility | pH 7 solubility
4 | CC(C)(C#Cc1ccc(-c2ccc(Cl)c3c(N(C(=O)OCCCCCOP(=O)(O)O)S(C)(=O)=O)nn(CC(F)(F)F)c23)c([C@H](Cc2cc(F)cc(F)c2)NC(=O)Cn2nc(C(F)(F)F)c3c2C(F)(F)[C@@H]2C[C@H]32)n1)S(C)(=O)=O [Compound 104, 5-(phosphonooxy)pentyl (4-chloro-7-(2-((S)-1-(2-((3bS,4aR)-5,5-difluoro-3-(trifluoromethyl)-3b,4,4a,5-tetrahydro-1H-cyclopropa[3,4]cyclopenta[1,2-c]pyrazol-1-yl)acetamido)-2-(3,5-difluorophenyl)ethyl)-6-(3-methyl-3-(methylsulfonyl)but-1-yn-1-yl)pyridin-3-yl)-1-(2,2,2-trifluoroethyl)-1H-indazol-3-yl)(methylsulfonyl)carbamate] | 1 μM | 89 μM
5 | CC(C)(C#Cc1ccc(-c2ccc(Cl)c3c(N(C(=O)OCCOCCOP(=O)(O)O)S(C)(=O)=O)nn(CC(F)(F)F)c23)c([C@H](Cc2cc(F)cc(F)c2)NC(=O)Cn2nc(C(F)(F)F)c3c2C(F)(F)[C@@H]2C[C@H]32)n1)S(C)(=O)=O [Compound 106, 2-(2-(phosphonooxy)ethoxy)ethyl (4-chloro-7-(2-((S)-1-(2-((3bS,4aR)-5,5-difluoro-3-(trifluoromethyl)-3b,4,4a,5-tetrahydro-1H-cyclopropa[3,4]cyclopenta[1,2-c]pyrazol-1-yl)acetamido)-2-(3,5-difluorophenyl)ethyl)-6-(3-methyl-3-(methylsulfonyl)but-1-yn-1-yl)pyridin-3-yl)-1-(2,2,2-trifluoroethyl)-1H-indazol-3-yl)(methylsulfonyl)carbamate] | 4 μM | 100 μM
6 | CC(C)(C#Cc1ccc(-c2ccc(Cl)c3c(N(C(=O)OCCOCCOCCO)S(C)(=O)=O)nn(CC(F)(F)F)c23)c([C@H](Cc2cc(F)cc(F)c2)NC(=O)Cn2nc(C(F)(F)F)c3c2C(F)(F)[C@@H]2C[C@H]32)n1)S(C)(=O)=O [Compound 107, 2-(2-(2-hydroxyethoxy)ethoxy)ethyl (4-chloro-7-(2-((S)-1-(2-((3bS,4aR)-5,5-difluoro-3-(trifluoromethyl)-3b,4,4a,5-tetrahydro-1H-cyclopropa[3,4]cyclopenta[1,2-c]pyrazol-1-yl)acetamido)-2-(3,5-difluorophenyl)ethyl)-6-(3-methyl-3-(methylsulfonyl)but-1-yn-1-yl)pyridin-3-yl)-1-(2,2,2-trifluoroethyl)-1H-indazol-3-yl)(methylsulfonyl)carbamate] | 4 μM | 1 μM
7 | CC(C)(C#Cc1ccc(-c2ccc(Cl)c3c(N(C(=O)OCCOCCOCCOP(=O)(O)O)S(C)(=O)=O)nn(CC(F)(F)F)c23)c([C@H](Cc2cc(F)cc(F)c2)NC(=O)Cn2nc(C(F)(F)F)c3c2C(F)(F)[C@@H]2C[C@H]32)n1)S(C)(=O)=O [Compound 108, 2-(2-(2-(phosphonooxy)ethoxy)ethoxy)ethyl (4-chloro-7-(2-((S)-1-(2-((3bS,4aR)-5,5-difluoro-3-(trifluoromethyl)-3b,4,4a,5-tetrahydro-1H-cyclopropa[3,4]cyclopenta[1,2-c]pyrazol-1-yl)acetamido)-2-(3,5-difluorophenyl)ethyl)-6-(3-methyl-3-(methylsulfonyl)but-1-yn-1-yl)pyridin-3-yl)-1-(2,2,2-trifluoroethyl)-1H-indazol-3-yl)(methylsulfonyl)carbamate] | 1 μM | 100 μM
8 | CC(C)(C#Cc1ccc(-c2ccc(Cl)c3c(N(C(=O)OCCOCCOCCOCCOP(=O)(O)O)S(C)(=O)=O)nn(CC(F)(F)F)c23)c([C@H](Cc2cc(F)cc(F)c2)NC(=O)Cn2nc(C(F)(F)F)c3c2C(F)(F)[C@@H]2C[C@H]32)n1)S(C)(=O)=O [Compound 110, 2-(2-(2-(2-(phosphonooxy)ethoxy)ethoxy)ethoxy)ethyl (4-chloro-7-(2-((S)-1-(2-((3bS,4aR)-5,5-difluoro-3-(trifluoromethyl)-3b,4,4a,5-tetrahydro-1H-cyclopropa[3,4]cyclopenta[1,2-c]pyrazol-1-yl)acetamido)-2-(3,5-difluorophenyl)ethyl)-6-(3-methyl-3-(methylsulfonyl)but-1-yn-1-yl)pyridin-3-yl)-1-(2,2,2-trifluoroethyl)-1H-indazol-3-yl)(methylsulfonyl)carbamate] | 1 μM | 100 μM
